In this assay the test system is MV-4-11 cells. Description: Gene expression microarray analysis (Affymetrix PrimeView) and GSEA. The class given is cell-based, human. More on the design: RFU PODN (11730768_x_at) / Fold change /veh PODN (11730768_x_at) / RFU LINC00158 (11744669_a_at) / Fold change /veh LINC00158 (11744669_a_at) / RFU DUSP10 (11751237_a_at) / Fold change /veh DUSP10 (11751237_a_at) / RFU ID3 (11757404_x_at) / Fold change /veh ID3 (11757404_x_at) / RFU PLEKHG5 (11737974_s_at) / Fold change /veh PLEKHG5 (11737974_s_at) / RFU LRRC4B (11730491_at) / Fold change /veh LRRC4B (11730491_at) / RFU GIMAP4 (11747438_a_at) / Fold change /veh GIMAP4 (11747438_a_at) / RFU KRT8 (11758183_x_at) / Fold change /veh KRT8 (11758183_x_at) / RFU CNN1 (11734310_a_at) / Fold change /veh CNN1 (11734310_a_at) / RFU VPS37D (11726825_at) / Fold change /veh VPS37D (11726825_at) / RFU C10orf10 (11716522_x_at) / Fold change /veh C10orf10 (11716522_x_at) / RFU KIR2DL2 /// KIR2DL4 /// KIR2DL5A /// KIR2DL5B /// KIR2DS1 /// KIR2DS2 /// KIR2DS3 /// KIR2DS4 /// KIR3DL3 /// KIR3DL3 /// KIR3DS1 (11738374_at) / Fold change /veh KIR2DL2 /// KIR2DL4 /// KIR2DL5A /// KIR2DL5B /// KIR2DS1 /// KIR2DS2 /// KIR2DS3 /// KIR2DS4 /// KIR3DL3 /// KIR3DL3 /// KIR3DS1 (11738374_at) / RFU C1QL1 (11718748_at) / Fold change /veh C1QL1 (11718748_at) / RFU TMPRSS4 (11747572_a_at) / Fold change /veh TMPRSS4 (11747572_a_at) / RFU HAMP (11756126_x_at) / Fold change /veh HAMP (11756126_x_at) / RFU RNFT2 (11725882_a_at) / Fold change /veh RNFT2 (11725882_a_at) / RFU NR4A2 (11747474_a_at) / Fold change /veh NR4A2 (11747474_a_at) / RFU ABCC12 (11746883_a_at) / Fold change /veh ABCC12 (11746883_a_at) / RFU TMEM136 (11760407_x_at) / Fold change /veh TMEM136 (11760407_x_at) / RFU CLDN22 /// WWC2 (11732394_at) / Fold change /veh CLDN22 /// WWC2 (11732394_at) / RFU HLA-DPB1 (11760878_x_at) / Fold change /veh HLA-DPB1 (11760878_x_at) / RFU SPINT1 (11716480_a_at) / Fold change /veh SPINT1 (11716480_a_at) / RFU GAP43 (11754022_s_at) / Fold change /veh GAP43 (11754022_s_at) / RFU A4GNT (11735810_at) / Fold change /veh A4GNT (11735810_at) / RFU PRB3 (11715151_x_at) / Fold change /veh PRB3 (11715151_x_at) / RFU TUBB4B (11761932_at) / Fold change /veh TUBB4B (11761932_at) / RFU CAPN14 (11732068_a_at) / Fold change /veh CAPN14 (11732068_a_at) / RFU TMCC2 (11721928_a_at) / Fold change /veh TMCC2 (11721928_a_at) / RFU IRGQ (11745062_a_at) / Fold change /veh IRGQ (11745062_a_at) / RFU FAM174B (11720279_a_at) / Fold change /veh FAM174B (11720279_a_at) / RFU TMPRSS4 (11748680_a_at) / Fold change /veh TMPRSS4 (11748680_a_at) / RFU FAM212B (11763350_a_at) / Fold change /veh FAM212B (11763350_a_at) / RFU PLEKHG5 (11743358_a_at) / Fold change /veh PLEKHG5 (11743358_a_at) / RFU ZSCAN30 (11745921_a_at) / Fold change /veh ZSCAN30 (11745921_a_at) / RFU CMKLR1 (11741424_a_at) / Fold change /veh CMKLR1 (11741424_a_at) / RFU LOC101060620 /// MAPK8IP1 (11723275_at) / Fold change /veh LOC101060620 /// MAPK8IP1 (11723275_at) / RFU SPTSSB (11747773_x_at) / Fold change /veh SPTSSB (11747773_x_at) / RFU PRSS12 (11739890_at) / Fold change /veh PRSS12 (11739890_at) / RFU BIN1 (11741810_x_at) / Fold change /veh BIN1 (11741810_x_at) / RFU WNT11 (11732464_a_at) / Fold change /veh WNT11 (11732464_a_at) / RFU C10orf10 (11716521_a_at) / Fold change /veh C10orf10 (11716521_a_at) / RFU C5orf56 (11738089_at) / Fold change /veh C5orf56 (11738089_at) / RFU CYB561 (11721691_x_at) / Fold change /veh CYB561 (11721691_x_at) / RFU ANKRD19P (11752326_a_at) / Fold change /veh ANKRD19P (11752326_a_at) / RFU OR2T12 /// OR2T33 /// OR2T8 (11738714_s_at) / Fold change /veh OR2T12 /// OR2T33 /// OR2T8 (11738714_s_at) / RFU VCAN (11748164_a_at) / Fold change /veh VCAN (11748164_a_at) / RFU JSRP1 (11732532_at) / Fold change /veh JSRP1 (11732532_at) / RFU KRTAP10-11 (11738290_x_at) / Fold change /veh KRTAP10-11 (11738290_x_at) / RFU MYO3A (11730013_a_at) / Fold change /veh MYO3A (11730013_a_at) / RFU EBF3 (11725865_a_at) / Fold change /veh EBF3 (11725865_a_at) / RFU CAMK2N1 (11719241_x_at) / Fold change /veh CAMK2N1 (11719241_x_at) / RFU C5orf56 (11738088_a_at) / Fold change /veh C5orf56 (11738088_a_at) / RFU OLFML3 (11715873_a_at) / Fold change /veh OLFML3 (11715873_a_at) / RFU LOC100653217 /// NTM (11731650_a_at) / Fold change /veh LOC100653217 /// NTM (11731650_a_at) / RFU MAPK11 (11762145_a_at) / Fold change /veh MAPK11 (11762145_a_at) / RFU FIZ1 (11724087_x_at) / Fold change /veh FIZ1 (11724087_x_at) / RFU OASL (11726364_x_at) / Fold change /veh OASL (11726364_x_at) / RFU SOX15 (11748057_x_at) / Fold change /veh SOX15 (11748057_x_at) / RFU CD79A (11719716_a_at) / Fold change /veh CD79A (11719716_a_at) / RFU HIST1H1D (11736915_at) / Fold change /veh HIST1H1D (11736915_at) / RFU CASKIN2 (11723855_a_at) / Fold change /veh CASKIN2 (11723855_a_at) / RFU LOC730098 (11760151_x_at) / Fold change /veh LOC730098 (11760151_x_at) / RFU OR4N2 (11742367_at) / Fold change /veh OR4N2 (11742367_at) / RFU PRRT2 (11749266_a_at) / Fold change /veh PRRT2 (11749266_a_at) / RFU SNX32 (11753110_a_at) / Fold change /veh SNX32 (11753110_a_at) / RFU CDHR5 (11726645_a_at) / Fold change /veh CDHR5 (11726645_a_at) / RFU RCAN1 (11760418_a_at) / Fold change /veh RCAN1 (11760418_a_at) / RFU FAM167A (11723789_a_at) / Fold change /veh FAM167A (11723789_a_at) / RFU FAM26E (11764081_at) / Fold change /veh FAM26E (11764081_at) / RFU ISYNA1 (11749810_s_at) / Fold change /veh ISYNA1 (11749810_s_at) / RFU ACY1 (11761880_at) / Fold change /veh ACY1 (11761880_at) / RFU 11764098_at / Fold change /veh 11764098_at / RFU SAMD14 (11745864_x_at) / Fold change /veh SAMD14 (11745864_x_at) / RFU NPB (11741838_a_at) / Fold change /veh NPB (11741838_a_at) / RFU TMPRSS6 (11731388_a_at) / Fold change /veh TMPRSS6 (11731388_a_at) / RFU KRTAP10-2 (11738614_at) / Fold change /veh KRTAP10-2 (11738614_at) / RFU ARHGAP8 /// PRR5-ARHGAP8 (11727945_x_at) / Fold change /veh ARHGAP8 /// PRR5-ARHGAP8 (11727945_x_at) / RFU KRTAP5-7 /// NADSYN1 (11734609_at) / Fold change /veh KRTAP5-7 /// NADSYN1 (11734609_at) / RFU RASL12 (11751679_a_at) / Fold change /veh RASL12 (11751679_a_at) / RFU CDKN2B (11736163_a_at) / Fold change /veh CDKN2B (11736163_a_at) / RFU PRF1 (11729649_at) / Fold change /veh PRF1 (11729649_at) / RFU, ZNF638 /// ZNF638-IT1 / Fold change vs veh, ZNF638 /// ZNF638-IT1 / RFU, PANK3 / Fold change vs veh, PANK3 / RFU, SH3YL1 / Fold change vs veh, SH3YL1 / RFU, ZEB2 / Fold change vs veh, ZEB2 / RFU, NRIP1 / Fold change vs veh, NRIP1 / RFU, PTTG1IP / Fold change vs veh, PTTG1IP / RFU, CAPN2 / Fold change vs veh, CAPN2 / RFU, MED14 / Fold change vs veh, MED14 / RFU, SNORA58 / Fold change vs veh, SNORA58 / RFU, C1orf63 / Fold change vs veh, C1orf63 / RFU, LRRFIP1 / Fold change vs veh, LRRFIP1 / RFU, NDUFAF7 / Fold change vs veh, NDUFAF7 / RFU, SLC12A2 / Fold change vs veh, SLC12A2 / RFU, IBTK / Fold change vs veh, IBTK / RFU, ESF1 / Fold change vs veh, ESF1 / Fold change vs veh, TMEM50B / RFU, TAOK1 / Fold change vs veh, TAOK1 / RFU, ACBD3 / Fold change vs veh, ACBD3 / RFU, TMA16 / Fold change vs veh, TMA16 / RFU, RWDD3 / Fold change vs veh, RWDD3 / RFU, BCAT1 / Fold change vs veh, BCAT1 / RFU, EDEM3 / Fold change vs veh, EDEM3 / RFU, TMEM33 / Fold change vs veh, TMEM33 / RFU, WDR75 / Fold change vs veh, WDR75 / RFU, AHCTF1 / Fold change vs veh, AHCTF1 / RFU, TFRC / Fold change vs veh, TFRC / RFU, ZDHHC17 / Fold change vs veh, ZDHHC17 / RFU, NOM1 / Fold change vs veh, NOM1 / RFU, ARL8B / Fold change vs veh, ARL8B / RFU, ZBTB11 / Fold change vs veh, ZBTB11 / RFU, TAMM41 / Fold change vs veh, TAMM41 / RFU, KIAA1704 /// LOC100996395 / Fold change vs veh, KIAA1704 /// LOC100996395 / RFU, ING1 / Fold change vs veh, ING1 / RFU, TRMT61B / Fold change vs veh, TRMT61B / RFU, FUBP3 / Fold change vs veh, FUBP3 / RFU, TP53 / Fold change vs veh, TP53 / RFU, TNKS2 / Fold change vs veh, TNKS2 / RFU, ZFP14 / Fold change vs veh, ZFP14 / RFU, ACTR2 / Fold change vs veh, ACTR2 / RFU, PPP3R1 / Fold change vs veh, PPP3R1 / RFU, PIK3R1 / Fold change vs veh, PIK3R1 / RFU, HNRNPA1 / Fold change vs veh, HNRNPA1 / RFU, RNF170 / Fold change vs veh, RNF170 / RFU, ZNF28 / Fold change vs veh, ZNF28 / RFU, RNGTT / Fold change vs veh, RNGTT / RFU, OGT / Fold change vs veh, OGT / RFU, BRD1 / Fold change vs veh, BRD1 / RFU, MARS / Fold change vs veh, MARS / RFU, ZNF655 / Fold change vs veh, ZNF655 / RFU, FAHD1 / Fold change vs veh, FAHD1 / RFU, BDP1 / Fold change vs veh, BDP1 / RFU, LRRCC1 / Fold change vs veh, LRRCC1 / RFU, ARID1A / Fold change vs veh, ARID1A / RFU, ZNF146 / Fold change vs veh, ZNF146 / RFU, ZNF330 / Fold change vs veh, ZNF330 / RFU, GPN3 / Fold change vs veh, GPN3 / RFU, C9orf123 / Fold change vs veh, C9orf123 / RFU, N4BP2L2 / Fold change vs veh, N4BP2L2 / RFU, ARFIP1 / Fold change vs veh, ARFIP1 / RFU, FAM179B / Fold change vs veh, FAM179B / RFU, BCL10 / Fold change vs veh, BCL10 / RFU, UHRF1BP1L / Fold change vs veh, UHRF1BP1L / RFU, BET1 / Fold change vs veh, BET1 / RFU, CNOT2 / Fold change vs veh, CNOT2 / RFU, ZNF268 / Fold change vs veh, ZNF268 / Fold change vs veh, ZNF507 / RFU, DGCR2 / Fold change vs veh, DGCR2 / RFU, WDSUB1 / Fold change vs veh, WDSUB1 / Fold change vs veh, HSP90B1 /// MIR3652 / RFU, ADSS / Fold change vs veh, ADSS / RFU, GK / Fold change vs veh, GK / RFU, ZNF148 / Fold change vs veh, ZNF148 / RFU, TAF9 / Fold change vs veh, TAF9 / RFU, SLC1A5 / Fold change vs veh, SLC1A5 / RFU, SLMO2 / Fold change vs veh, SLMO2 / RFU, ABCC4 / Fold change vs veh, ABCC4 / RFU, LOC101060439 /// RAP1B / Fold change vs veh, LOC101060439 /// RAP1B / RFU, RFX7 / Fold change vs veh, RFX7 / RFU, GTPBP10 / Fold change vs veh, GTPBP10 / RFU, CNEP1R1 / Fold change vs veh, CNEP1R1 / RFU, BIVM-ERCC5 /// ERCC5 / Fold change vs veh, BIVM-ERCC5 /// ERCC5 / RFU, ILF3 / Fold change vs veh, ILF3 / RFU 11762660_at / Fold change /veh 11762660_at / RFU VCAN (11757783_s_at) / Fold change /veh VCAN (11757783_s_at) / RFU DDX43 (11728927_at) / Fold change /veh DDX43 (11728927_at) / RFU KRT8 (11758188_x_at) / Fold change /veh KRT8 (11758188_x_at) / RFU NKD1 (11759106_at) / Fold change /veh NKD1 (11759106_at) / RFU SRD5A1 (11742802_a_at) / Fold change /veh SRD5A1 (11742802_a_at) / RFU TPSAB1 /// TPSB2 (11721975_s_at) / Fold change /veh TPSAB1 /// TPSB2 (11721975_s_at) / RFU GSTM3 (11746129_a_at) / Fold change /veh GSTM3 (11746129_a_at) / RFU IL23R (11737362_x_at) / Fold change /veh IL23R (11737362_x_at) / RFU TMEM51 (11727254_a_at) / Fold change /veh TMEM51 (11727254_a_at) / RFU PIWIL2 (11732686_x_at) / Fold change /veh PIWIL2 (11732686_x_at) / RFU ORM1 (11744905_x_at) / Fold change /veh ORM1 (11744905_x_at) / RFU CCDC152 (11743942_at) / Fold change /veh CCDC152 (11743942_at) / RFU ECM1 (11717891_a_at) / Fold change /veh ECM1 (11717891_a_at) / RFU IL23R (11748794_a_at) / Fold change /veh IL23R (11748794_a_at) / RFU TNFAIP8L3 (11732012_x_at) / Fold change /veh TNFAIP8L3 (11732012_x_at) / RFU MBOAT4 (11741988_at) / Fold change /veh MBOAT4 (11741988_at) / RFU 11764193_at / Fold change /veh 11764193_at / RFU TMEM53 (11763286_at) / Fold change /veh TMEM53 (11763286_at) / RFU MAGEB2 (11727129_at) / Fold change /veh MAGEB2 (11727129_at) / RFU TMEM200A (11744735_a_at) / Fold change /veh TMEM200A (11744735_a_at) / RFU CCDC152 (11751479_a_at) / Fold change /veh CCDC152 (11751479_a_at) / RFU FAM211A (11726209_a_at) / Fold change /veh FAM211A (11726209_a_at) / RFU RGS16 (11746705_a_at) / Fold change /veh RGS16 (11746705_a_at) / RFU VCAN (11755009_s_at) / Fold change /veh VCAN (11755009_s_at) / RFU RHOB (11743442_s_at) / Fold change /veh RHOB (11743442_s_at) / RFU RGS16 (11720943_a_at) / Fold change /veh RGS16 (11720943_a_at) / RFU RGS16 (11720944_at) / Fold change /veh RGS16 (11720944_at) / RFU, VPS4B / Fold change vs veh, VPS4B / RFU, CREB1 / Fold change vs veh, CREB1 / RFU, DNAJC13 / Fold change vs veh, DNAJC13 / RFU, GNAQ / Fold change vs veh, GNAQ / RFU, CDK5R1 / Fold change vs veh, CDK5R1 / RFU, ZRANB3 / Fold change vs veh, ZRANB3 / RFU, CUL4A / Fold change vs veh, CUL4A / RFU, CCNY / Fold change vs veh, CCNY / RFU, UFL1 / Fold change vs veh, UFL1 / RFU, COG3 / Fold change vs veh, COG3 / RFU, DIAPH2 / Fold change vs veh, DIAPH2 / RFU, SKA2 / Fold change vs veh, SKA2 / RFU, AFF3 / Fold change vs veh, AFF3 / RFU, LMF1 / Fold change vs veh, LMF1 / RFU, IPO11 / Fold change vs veh, IPO11 / RFU, DFFB / Fold change vs veh, DFFB / RFU, FOXP1 / Fold change vs veh, FOXP1 / RFU, CARD8 / Fold change vs veh, CARD8 / RFU, STRN3 / Fold change vs veh, STRN3 / RFU, ADK / Fold change vs veh, ADK / RFU, RASSF2 / Fold change vs veh, RASSF2 / RFU, WIPF1 / Fold change vs veh, WIPF1 / RFU, LARP1B / Fold change vs veh, LARP1B / RFU, RASA1 / Fold change vs veh, RASA1 / RFU, RB1 / Fold change vs veh, RB1 / RFU, PPFIA1 / Fold change vs veh, PPFIA1 / RFU, MAT2A / Fold change vs veh, MAT2A / RFU, CCT5 / Fold change vs veh, CCT5 / RFU, WDR92 / Fold change vs veh, WDR92 / RFU, CUX1 / Fold change vs veh, CUX1 / RFU, TTC7A / Fold change vs veh, TTC7A / RFU, TMEM135 / Fold change vs veh, TMEM135 / RFU, DEPTOR / Fold change vs veh, DEPTOR / RFU, CPM / Fold change vs veh, CPM / RFU, DNAJB6 / Fold change vs veh, DNAJB6 / RFU, CACNA2D3 / Fold change vs veh, CACNA2D3 / RFU, DTX4 / Fold change vs veh, DTX4 / RFU, TFCP2 / Fold change vs veh, TFCP2 / RFU, GMCL1 /// GMCL1P1 / Fold change vs veh, GMCL1 /// GMCL1P1 / RFU, AEBP2 / Fold change vs veh, AEBP2 / RFU, SNHG1 /// SNORD22 /// SNORD25 /// SNORD26 /// SNORD27 /// SNORD28 /// SNORD29 /// SNORD31 / Fold change vs veh, SNHG1 /// SNORD22 /// SNORD25 /// SNORD26 /// SNORD27 /// SNORD28 /// SNORD29 /// SNORD31 / Fold change (Aza/veh), C12orf56 (ProbeSet 11735607_a_at) / Fold change (ACY-1035/veh), C12orf56 (ProbeSet 11735607_a_at) / Fold change (Aza/veh), FGFR1OP (ProbeSet 11751329_s_at) / Fold change (ACY-1035/veh), FGFR1OP (ProbeSet 11751329_s_at) / Fold change (Aza/veh), VPS36 (ProbeSet 11739960_a_at) / Fold change (ACY-1035/veh), VPS36 (ProbeSet 11739960_a_at) / RFU SYPL1 (11715823_x_at) / Fold change /veh SYPL1 (11715823_x_at) / RFU IGFBP7 (11715501_s_at) / Fold change /veh IGFBP7 (11715501_s_at) / RFU REEP3 (11722064_at) / Fold change /veh REEP3 (11722064_at) / RFU IGLL1 (11728026_x_at) / Fold change /veh IGLL1 (11728026_x_at): dose or concentration left out as unconfirmed. The following applies: ProbeSet 11743567_s_at; LIST B.

On to `Nc1ncn([C@@H]2O[C@H](CO)[C@@H](O)[C@H]2O)c(=O)n1` [azacitidine], for which the “Fold change vs veh, ACBD3” value was 1.04.
